{
  "source": "paper PMC9620421",
  "about": "“The antimicrobial peptide Magainin-2 interacts with BamA impairing folding of E. coli membrane proteins” (Frontiers in Chemistry, 2022)",
  "key": {"BamA [1]": {"tested_on": "BamA"}, "OmpF": {"tested_on": "OmpF", "conditions": "50 µM Mag-2 for 1h, 2 h and 3h; triplicate LC-MS/MS; t-test p < 0.05; with increasing time of incubation"}, "bacterial membrane": {"tested_on": "bacterial membrane", "conditions": "ref Billah et al., 2022; cited from earlier work", "excerpt": "Peptide binding is favoured by both hydrophobic interactions between non-polar amino acids and the hydrophobic nucleus of the membrane and electrostatic interactions between the positive charges of the peptides and the negative charges of lipids ([Bahar and Ren, 2013]). Although the mechanism of action is not yet fully understood at molecular level, it is known that Magain ..."}, "[2]": {"tested_on": "E. coli membrane proteins", "test": "Pull-down proteomics, number of putative interactors", "assay_type": "binding", "conditions": "biotinylated Mag-2 on avidin-agarose, biotin elution, LC-MS/MS; absent in control"}, "OmpA [3]": {"tested_on": "OmpA", "test": "LC-MRM/MS quantification of OmpA in E. coli after Mag-2 incubation", "assay_type": "cell-based", "excerpt": "Cone voltage was set to 35V."}, "OmpA [4]": {"tested_on": "OmpA", "test": "Western blot densitometry of OmpA in E. coli after Mag-2 incubation", "assay_type": "cell-based", "conditions": "75 µM Mag-2, 1 h", "procedure": "The E. coli cells were grown in the presence and in the absence of 50 µM Mag-2 for 1h, 2h and 3 h. The level of the OmpA protein was identified by Western Blot using a specific antiOmpA antibody. The amount of OmpA was then evaluated by densitometric analysis of the corresponding western blotted band. […] The same experiment was also carried out using a higher concentration of Mag-2 (75 µM) for as fixed time (1 h)."}, "BamAp5": {"target": "T1, BamAp5 (Escherichia coli, UniProt P0A940)", "T1 construct": "6xHis; made in house; host or cells: E. coli BL21", "test": "Intrinsic fluorescence binding titration", "design": "species or system E. coli", "procedure": "Fluorescence experiments were performed on a Fluoromax-4 spectrofluorometer from Horiba Scientific, using 1 cm optical path-length quartz cell under controlled temperature conditions (Peltier control system at 20°C). Titrations were carried out in 20 mM Tris-HCl pH 8.4, 0.2% triton. The intrinsic fluorescence intensity of BamAP5 at a concentration of 3.7 × 10^−6 M was monitored at 280 nm (slit 4 nm) and the emission was monitored at 308 nm (slit 4 nm) without and in the presence of increasing concentrations of Mag-2 peptide (from 2 to 18.64 µM). All experiments were performed in duplicate. The change in the fluorescence intensity of the reaction set was fit into “one site-specific binding” equation of GraphPad Prism 5 (GraphPad Software)."}, "BamA [5]": {"tested_on": "BamA", "conditions": "BamA identified as target; Gram-negative bacteria; ref Hart et al., 2019; Li et al., 2020; cited from earlier work", "excerpt": "Among the putative Mag-2 interactors, we focused our attention on the Bam complex as the proteomic experiment led to the identification of all the protein components of this complex essential for bacterial surviving. In particular, BamA is the central component of the Bam complex while BamB, -C, -D and -E are four lipoproteins with a secondary role."}, "[6]": {"conditions": "cited from earlier work", "excerpt": "Biophysical studies led to hypothesize three models that can explain the membrane disruption by AMPs: barrel-stave, toroidal pore and carpet mechanisms ([Di Somma et al., 2020]). According to these mechanisms, antimicrobial peptides interact with bacterial outer membranes, perturbing their integrity and causing their disaggregation ([Huang, 2006]). Most of AMPs show pore formation after binding to the membrane surface. X-ray crystallization studies and spectroscopic analyses reported that Alamethicin, a channel-forming peptide, insert into the lipid bilayer to form a barrel-stave pore structur ..."}, "[7]": {"target": "T2, 6XHis-tagged E. coli BamAp5 (β-barrel domain and fifth POTRA domain, residues 344-810) (E. coli, UniProt P0A940 344-810)", "T2 construct": "Monomer by DLS; also called recombinant form of BamA", "test": "other fluorescence titration; intrinsic fluorescence of 3.7 x 10^-6 M BamAp5 (excitation 280 nm, emission 308 nm) with Mag-2 from 2 to 18.64 µM; 20 mM Tris-HCl pH 8.4, 0.2% triton, 20°C; one site-specific binding fit; duplicate", "conditions": "both partners purified"}},
  "note": "Where two headings read alike, the source gives them in different places.",
  "data": [
    {"molecule": "Magainin-2 (GIGKFLHSAKKFGKAFVGEIMNS) [Mag-2, well-known antimicrobial peptide isolated from the African clawed frog Xenopus laevis]", "values": [
      {"measurement": "hydrodynamic radius of the protein in presence of peptide", "setting": "BamA [1]; DLS, 532.5 nm, peptide concentration ten times that of the protein, protein without peptide 4.7 ± 0.1 nm, at least 10 independent measurements", "result": "4.3 ± 0.1", "unit": "nm"},
      {"measurement": "aggregation state by DLS", "setting": "BamA [1]; samples without and with peptide (ten times higher concentration than protein)", "result": "only the protein monomer is present in both samples"},
      {"measurement": "amount of OmpF by MRM", "setting": "OmpF", "result": "clear decrease"},
      {"measurement": "mechanism of antimicrobial activity", "setting": "bacterial membrane", "result": "toroidal mechanism"},
      {"measurement": "number of putative protein interactors", "setting": "[2]", "result": 35},
      {"measurement": "amount of OmpA peptide 252-263 (DGSVVVLGYTDR) by MRM peak area", "setting": "OmpA [3]; 50 µM Mag-2, 1 h, vs control", "result": "decrease of the OmpA peptide"},
      {"measurement": "amount of OmpA by MRM", "setting": "OmpA [3]; 50 µM Mag-2 for 1h, 2 h and 3h, triplicate LC-MS/MS, t-test p < 0.05, with increasing time of incubation", "result": "clear decrease"},
      {"measurement": "change of OmpA level", "setting": "OmpA [4]", "result": "rapid and drastic reduction of the OmpA level"},
      {"measurement": "Kd", "setting": "BamAp5; intrinsic fluorescence quenching, ex 280 nm, em 308 nm, BamAP5 3.7 × 10^−6 M, Mag-2 2 to 18.64 µM, 20 mM Tris-HCl pH 8.4, 0.2% triton, 20°C, duplicate, one site-specific binding fit, read-out: dissociation constant of the complex, Kd", "result": "3500 ± 100", "unit": "nM"},
      {"measurement": "change of BamAP5 intrinsic fluorescence", "setting": "BamAp5; λexc 280 nm, BamAp5 3.7 × 10^−6 M, increasing Mag-2, 20°C", "result": "fluorescence decreased at increasing concentrations of the peptide"}
    ]},
    {"molecule": "COC(=O)c1c(NC(=O)c2ccc([N+](=O)[O-])o2)sc2c1CCN(C(C)C)C2", "note": "[IMB-H4]", "values": [
      {"measurement": "inhibition of the assembly of OMPs", "setting": "BamA [5]", "result": "inhibits the assembly of OMPs in Gram-negative bacteria"}
    ]},
    {"molecule": "Melittin", "values": [
      {"measurement": "membrane pore formation", "setting": "[6]; fluorescence studies with phospholipid vesicles, ref Lohner and Blondelle, 2005", "result": "formation of pore coupled with the translocation of peptide across the lipid bilayer"}
    ]},
    {"molecule": "Alamethicin", "values": [
      {"measurement": "membrane pore formation", "setting": "[6]; X-ray crystallization and spectroscopic analyses, ref Qian et al., 2008", "result": "insert into the lipid bilayer to form a barrel-stave pore structure consisting of eight alamethicin helices"}
    ]},
    {"molecule": "NC(N)=NC(=O)CC(Nc1nc(N=C(N)N)nc(NC2CCC(NC(=O)Cn3nnc(-c4ccc(F)cc4)n3)CC2)n1)C1CC1", "note": "(stereo not drawn) [MRL-494]", "values": [
      {"measurement": "inhibition of the assembly of OMPs", "setting": "BamA [5]", "result": "inhibits the assembly of OMPs in Gram-negative bacteria"}
    ]},
    {"molecule": "GIGKFLHSAKKFGKAFVGEIMNS (peptide, UniProt P11006 83-105, looked up, Magainin-2 (Mag-2), antimicrobial peptide of the African clawed frog Xenopus laevis; cut product of the magainins precursor; the docking text numbers it to Ser23; also called Mag-2; Maganin-2)", "note": "[Magainin-2]", "values": [
      {"measurement": "Kd", "setting": "[7]", "result": "3.5 ± 0.1", "unit": "nM"}
    ]}
  ]
}
